Assay results: US11779582B2, “Composition for preventing or treating metastatic ovarian cancer, endometrial cancer or breast cancer” (LEMONEX INC., priority 2017, dated 2023)

Columns and labels:
Type in all cases: cell-based
[1] = system: sphere cultured SKOV3ip1 ovarian cancer cells; test: crystal violet cell viability, 3D sphere culture
Method: For 3D sphere culture, SKOV3ip1 cells (1×10^6) were dispensed on ultra-low adherent 6-well plate (Corning NY, USA), and then, cultured in 5% CO2 incubator using RPMI 1640 medium supplemented with 10% fetal bovine serum (Gibco, NY, USA) and 10 U/ml penicillin/streptomycin (Gibco).
In order to assess the cell viability in the sphere cultured cells, the SKOV3ip1 cells (5×10^4) were dispensed on the super-low adherent 24-well plate and cultured overnight. The cells were harvested from each well and the commercial 24-well plate was moved, followed by further incubation for 12 hours. The adhered and visualized cells were stained with 0.2% crystal violet solution for 20 minutes while gently agitating the same. The stained cells were washed with distilled water until a clean background is observed. For assessment using a colorimeter, the crystal violet dye was extracted with 1% SDS/PBS and absorbance was measured at 570 nm wavelength by EMax PLUS microplate reader (Molecular Device, USA).
The monolayer cultured or sphere cultured SKOV3ip1 cells were treated with the tyrosine kinase inhibitor and paclitaxel for 72 hours, the cell viability was determined by the crystal violet colorimeter, and results thereof are shown in FIG. 3.
Since the cell survival of the sphere cultured SKOV3ip1 cells is inhibited by BGJ398 treatment, whether such cell survival inhibition is intermediated through JAK/STAT3 signaling pathway was further examined. For this purpose, the selective JAK tyrosine kinase inhibitor AG490 was used at different concentrations of 3.125 to 50 μM in order to treat the monolayer cultured or sphere cultured SKOV3ip1 cells, and after 72 hours, whether it affects the cell viability and AKT and STAT3 activation was examined through crystal violet staining and immunostaining assay, and results thereof are shown in FIG. 7. Actin was used as a loading control group.
Under this ground, when administering BGJ398 in combination with paclitaxel typically used as the existing primary anticancer drug for ovarian cancer, whether paclitaxel resistance of the sphere cultured cells is overcome and improved was determined.

[2] = system: HEC1B endometrial cancer cell line (3D sphere culture); test: morphological analysis and crystal violet staining, 3D sphere culture
Method: (§1) With respect to the cancer cell lines listed in Table 1 below, synergistic effects of paclitaxel and BGJ398 were further examined. According to the same procedures as described in the previous examples, each cell line was divided and cultured by 2D monolayer culture and 3D sphere culture, respectively. Then, a change due to BGJ398 administration was analyzed through morphological analysis and crystal violet staining assay. All cell lines were purchased from ATCC and used in the present experiments, and detailed information thereof are shown in Table 3 below.
(§2) With respect to the cancer cell lines listed in Table 2 below, synergistic effects of paclitaxel and BGJ398 were further examined. According to the same procedures as described in the previous examples, each cell line was divided and cultured by 2D monolayer culture and 3D sphere culture, respectively. Then, a change due to administration of BGJ398 alone or in combination with paclitaxel was analyzed through morphological analysis.

[3] = system: Hs578T breast cancer cell line (3D sphere culture); test: as above
Method: as §1, §2

[4] = system: HEC1B endometrial cancer cell line (2D monolayer culture); test: crystal violet staining and morphology, paclitaxel in combination with BGJ398
Method: as §2

[5] = system: Hs578T breast cancer cell line (2D monolayer culture); test: as above
Method: as §2

[6] = system: cleaved PARP in SKOV3-TR ovarian cancer cells; test: cleaved PARP immunostaining; details: BGJ398 in combination with paclitaxel (FIGS. 24 and 25)
Excerpt: In order to identify whether a change in signaling pathways associated with cell survival appears or not according to 2D monolayer culture (2D MC) and 3D sphere culture (3D SC), immunostaining was implemented. More particularly, after culturing SKOV3ip1 cells (1×10^6) by 2D monolayer culture or 3D sphere culture described in section 1.1, expression of cell-signaling molecules including AKT, STAT3, p42/44 ERK and p38 MAPK was detected and activation states in the monolayer cultured cells and the sphere cultured cells were compared. […] An immune activation band was detected with SuperSignal West Pico Chemiluminescent Substrate (Thermo, IL, USA) using a Fusion Solo chemiluminescence analyzer (Vilber Rourmat Marne la Vallee, France). […]
FIGS. 24 and 25 illustrate expression of cleaved PARP and actin upon administration of paclitaxel alone, BGJ398 alone or in combination with paclitaxel to SKOV3-TR ovarian cancer cells, which was determined by the immunostaining method described above.

Structure (SMILES): CCN1CCN(c2ccc(Nc3cc(N(C)C(=O)Nc4c(Cl)c(OC)cc(OC)c4Cl)ncn3)cc2)CC1 [BGJ398, 3-(2,6-dichloro-3,5-dimethoxyphenyl)-1-[6-[4-(4-ethylpiperazin-1yl)anilino]pyrimidin-4-yl]-1-methylurea]
- paclitaxel sensitivity ([1]; 3D cultured SKOV3ip1, 1.25 and 5 μM BGJ398 with paclitaxel vs BGJ398 untreated group): increased paclitaxel sensitivity in a dose-dependent manner
- cytotoxicity ([1]; 3D sphere cultured SKOV3ip1, 1 μM BGJ398, Day 3): showed cytotoxicity
- cell viability ([1]; sphere cultured SKOV3ip1, 72 hours, different concentrations, crystal violet colorimeter (FIG. 3)): reduced the cell viability in a dose-dependent manner
- cell apoptosis ([1]; sphere cultured SKOV3ip1, paclitaxel in combination with BGJ398 vs paclitaxel alone, 72 hours (FIG. 8)): higher cell apoptosis than the cells treated with paclitaxel alone
- cytotoxicity, cell sphere morphology ([2]; 3D sphere culture HEC1B, BGJ398 alone or in combination with paclitaxel): cell spheres are collapsed
- cell apoptosis ([2]; sphere cultured HEC1B, BGJ398 alone): cell apoptosis can be found
- cytotoxicity, cell sphere morphology ([3]; 3D sphere culture Hs578T, BGJ398 alone or in combination with paclitaxel): cell spheres are collapsed
- cell apoptosis ([3]; sphere cultured Hs578T, BGJ398 alone): cell apoptosis can be found
- effect on anticancer effects of paclitaxel ([4]; 2D monolayer HEC1B, BGJ398 in combination with paclitaxel (FIG. 10)): enhance anticancer effects of paclitaxel
- cell apoptosis ([4]; HEC1B, BGJ398 in combination with paclitaxel (FIGS. 10 and 11)): cell apoptosis is further increased
- effect on anticancer effects of paclitaxel ([5]; 2D monolayer Hs578T, BGJ398 in combination with paclitaxel (FIG. 13)): enhance anticancer effects of paclitaxel
- cell apoptosis ([5]; Hs578T, BGJ398 in combination with paclitaxel (FIGS. 13 and 14)): cell apoptosis is further increased
- expression of cleaved PARP and actin [6]: increased in concentration- and time-dependent manners
